Experimental findings from ChEMBL document CHEMBL1201862, “PubChem BioAssay data set” (2004) are described below.

Calls of active or inactive are those of the source.

The target of experiment [1] is Cell division cycle 7-related protein kinase (Homo sapiens, UniProt O00311). Type of experiment: functional.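 Note: value obtained from a kinome-wide kinase panel.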
The target in experiment [2] is Cyclin-dependent kinase 19 (Homo sapiens, UniProt Q9BWU1). Put plainly: Navigating the Kinome. Panel member name: CDC2L6. The experiment is classed as functional.
Cyclin-dependent kinase 19, sequence (Q9BWU1 whole entry): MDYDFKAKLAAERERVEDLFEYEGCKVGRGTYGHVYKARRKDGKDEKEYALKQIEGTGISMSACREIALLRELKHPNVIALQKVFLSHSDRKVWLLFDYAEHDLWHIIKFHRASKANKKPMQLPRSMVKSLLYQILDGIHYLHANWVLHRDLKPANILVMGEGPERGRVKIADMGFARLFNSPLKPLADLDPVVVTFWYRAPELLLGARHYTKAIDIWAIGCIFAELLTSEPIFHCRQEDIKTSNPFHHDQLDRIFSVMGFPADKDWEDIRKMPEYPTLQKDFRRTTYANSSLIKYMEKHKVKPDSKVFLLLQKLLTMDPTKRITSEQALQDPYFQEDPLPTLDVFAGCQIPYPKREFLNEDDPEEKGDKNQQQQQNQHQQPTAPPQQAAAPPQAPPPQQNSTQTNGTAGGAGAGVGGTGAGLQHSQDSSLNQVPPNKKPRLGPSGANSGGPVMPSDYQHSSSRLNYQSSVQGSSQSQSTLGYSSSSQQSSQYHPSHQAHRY
Experiment [3] addresses DNA dC->dU-editing enzyme APOBEC-3A (Homo sapiens, UniProt P31941). The experiment in a line: SAR analysis of small molecule inhibitors of APOBEC3A DNA Deaminase via a fluorescence-based single-stranded DNA deaminase assay. The experiment is classed as functional. To be noted: read-out: IC50_Mean.
In experiment [4] the target is DNA dC->dU-editing enzyme APOBEC-3G (Homo sapiens, UniProt Q9HC16). Put plainly: APOBEC3G deaminase inhibitors, SAR follow-up, biochemical, fluorescence, single-stranded DNA substrate (AID 602136). The experiment is classed as functional. To be noted: read-out: IC50_Mean.
DNA dC->dU-editing enzyme APOBEC-3G, sequence (Q9HC16 whole entry): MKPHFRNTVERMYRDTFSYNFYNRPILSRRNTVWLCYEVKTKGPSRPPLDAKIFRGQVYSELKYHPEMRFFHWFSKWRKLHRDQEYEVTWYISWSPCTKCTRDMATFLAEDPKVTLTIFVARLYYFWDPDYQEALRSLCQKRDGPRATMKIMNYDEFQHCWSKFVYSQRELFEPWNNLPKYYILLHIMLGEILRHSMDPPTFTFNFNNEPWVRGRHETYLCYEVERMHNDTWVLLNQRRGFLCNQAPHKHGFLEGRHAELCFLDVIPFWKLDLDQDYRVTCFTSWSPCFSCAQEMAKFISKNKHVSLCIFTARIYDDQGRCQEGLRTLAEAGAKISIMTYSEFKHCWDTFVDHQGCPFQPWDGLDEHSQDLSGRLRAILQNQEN
The target of experiment [5] is T1, Sphingosine 1-phosphate receptor 4 (Homo sapiens, UniProt O95977).
T1 sequence (O95977 whole entry): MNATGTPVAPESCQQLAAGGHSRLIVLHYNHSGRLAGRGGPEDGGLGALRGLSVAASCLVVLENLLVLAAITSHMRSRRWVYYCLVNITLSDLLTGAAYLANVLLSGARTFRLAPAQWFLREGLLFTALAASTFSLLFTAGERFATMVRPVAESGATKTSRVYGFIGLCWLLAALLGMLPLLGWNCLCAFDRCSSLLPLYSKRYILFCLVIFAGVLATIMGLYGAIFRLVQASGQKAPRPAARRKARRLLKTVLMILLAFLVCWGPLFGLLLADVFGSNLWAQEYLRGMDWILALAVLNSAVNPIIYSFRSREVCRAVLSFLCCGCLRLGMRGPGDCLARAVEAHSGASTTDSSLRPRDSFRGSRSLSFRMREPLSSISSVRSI
The experiment in a line: Late-stage fluorescence-based dose-response cell-based counterscreen assay to identify agonists of the Sphingosine 1-Phosphate Receptor 3 (S1P3): Sphingosine 1-Phosphate Receptor 4 (S1P4) agonist assay. Type of experiment: functional. Background: A counterscreen serves to expose hits that act by an unwanted route or on another target.

In experiment [6] the target is Sphingosine 1-phosphate receptor 2 (Homo sapiens, UniProt O95136). The experiment in a line: Late-stage fluorescence-based dose-response cell-based counterscreen assay to identify agonists of the Sphingosine 1-Phosphate Receptor 3 (S1P3): Sphingosine 1-Phosphate Receptor 2 (S1P2) agonist assay. Type of experiment: functional.
Sphingosine 1-phosphate receptor 2, sequence (O95136 whole entry): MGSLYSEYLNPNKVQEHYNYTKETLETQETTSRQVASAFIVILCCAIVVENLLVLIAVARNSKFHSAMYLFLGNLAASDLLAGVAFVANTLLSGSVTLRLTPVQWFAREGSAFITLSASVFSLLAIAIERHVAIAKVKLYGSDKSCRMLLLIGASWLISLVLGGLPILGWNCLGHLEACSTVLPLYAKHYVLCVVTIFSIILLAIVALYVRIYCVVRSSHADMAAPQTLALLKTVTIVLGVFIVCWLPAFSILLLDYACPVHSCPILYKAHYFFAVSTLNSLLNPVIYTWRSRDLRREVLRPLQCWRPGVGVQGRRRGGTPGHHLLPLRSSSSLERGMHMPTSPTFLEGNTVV
For experiment [7], the target named is Protein disulfide-isomerase (Homo sapiens, UniProt P07237). Put plainly: PDI inhibitors, insulin aggregation turbidity, dose response, biochemical, absorbance, cherry-picked samples (AID 602350). The experiment is classed as functional.
Protein disulfide-isomerase, sequence (P07237 whole entry): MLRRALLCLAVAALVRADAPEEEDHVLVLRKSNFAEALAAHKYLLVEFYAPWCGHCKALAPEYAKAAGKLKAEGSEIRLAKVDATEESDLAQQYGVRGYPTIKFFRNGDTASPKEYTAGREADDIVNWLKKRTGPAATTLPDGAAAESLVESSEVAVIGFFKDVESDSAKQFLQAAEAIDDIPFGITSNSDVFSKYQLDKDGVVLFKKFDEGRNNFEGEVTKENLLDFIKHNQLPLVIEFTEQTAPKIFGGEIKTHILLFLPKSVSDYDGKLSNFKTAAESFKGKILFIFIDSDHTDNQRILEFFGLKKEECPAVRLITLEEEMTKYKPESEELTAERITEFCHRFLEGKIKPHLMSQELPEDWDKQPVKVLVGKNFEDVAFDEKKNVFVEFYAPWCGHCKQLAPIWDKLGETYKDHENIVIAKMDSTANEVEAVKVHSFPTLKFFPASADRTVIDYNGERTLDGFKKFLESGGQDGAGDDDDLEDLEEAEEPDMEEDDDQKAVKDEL
Experiment [8] is described as follows: viability loss in Mcl1-dependent HMC-1-8 cells, dose response, selectivity assay for A1 inhibitor project, cell-based, luminescence, dry powder (AID 504415). Type of experiment: functional. To be noted: Homo sapiens.
Experiment [9] concerns Saccharomyces cerevisiae. Put plainly: NALP1 inhibitor project selectivity study, Caspase-1/ASC signal blockade IC50 in S. cerevisiae (AID 488863). The experiment is classed as functional, organism-based.
Experiment [10] deals with T2, Protein RecA (Mycobacterium tuberculosis, UniProt P9WHJ3).
T2 sequence (P9WHJ3 whole entry): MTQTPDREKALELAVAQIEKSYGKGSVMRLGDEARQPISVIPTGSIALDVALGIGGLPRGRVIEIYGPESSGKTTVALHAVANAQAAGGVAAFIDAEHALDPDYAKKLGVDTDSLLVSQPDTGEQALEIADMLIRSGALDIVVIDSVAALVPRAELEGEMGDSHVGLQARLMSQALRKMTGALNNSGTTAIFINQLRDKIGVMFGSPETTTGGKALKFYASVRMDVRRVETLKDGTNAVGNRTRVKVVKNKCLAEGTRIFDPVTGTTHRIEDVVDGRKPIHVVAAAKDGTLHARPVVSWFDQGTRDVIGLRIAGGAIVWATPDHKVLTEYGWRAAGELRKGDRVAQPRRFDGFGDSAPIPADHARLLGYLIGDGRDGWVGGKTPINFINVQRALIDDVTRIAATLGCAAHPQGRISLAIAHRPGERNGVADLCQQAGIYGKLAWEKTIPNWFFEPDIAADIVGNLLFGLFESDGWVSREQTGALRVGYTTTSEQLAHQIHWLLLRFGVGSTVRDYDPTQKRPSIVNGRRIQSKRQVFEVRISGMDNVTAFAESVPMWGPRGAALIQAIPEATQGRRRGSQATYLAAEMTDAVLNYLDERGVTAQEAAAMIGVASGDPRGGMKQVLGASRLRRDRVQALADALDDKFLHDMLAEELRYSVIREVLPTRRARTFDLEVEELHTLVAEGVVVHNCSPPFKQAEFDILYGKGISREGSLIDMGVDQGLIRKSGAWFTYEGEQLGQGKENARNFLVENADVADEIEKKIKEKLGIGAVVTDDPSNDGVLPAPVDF
The experiment in a line: Fluorescence Cell-Free Homogeneous Dose Retest to Identify Inhibitors of RecA-Intein Splicing Activity. [Related pubchem assays (depositor defined):AID2097, AID2223, AID489010, AID492950]. Type of experiment: functional.

Experiment [11] concerns the target T3, NACHT, LRR and PYD domains-containing protein 1 (Homo sapiens, UniProt Q9C000).
T3 sequence (Q9C000 whole entry): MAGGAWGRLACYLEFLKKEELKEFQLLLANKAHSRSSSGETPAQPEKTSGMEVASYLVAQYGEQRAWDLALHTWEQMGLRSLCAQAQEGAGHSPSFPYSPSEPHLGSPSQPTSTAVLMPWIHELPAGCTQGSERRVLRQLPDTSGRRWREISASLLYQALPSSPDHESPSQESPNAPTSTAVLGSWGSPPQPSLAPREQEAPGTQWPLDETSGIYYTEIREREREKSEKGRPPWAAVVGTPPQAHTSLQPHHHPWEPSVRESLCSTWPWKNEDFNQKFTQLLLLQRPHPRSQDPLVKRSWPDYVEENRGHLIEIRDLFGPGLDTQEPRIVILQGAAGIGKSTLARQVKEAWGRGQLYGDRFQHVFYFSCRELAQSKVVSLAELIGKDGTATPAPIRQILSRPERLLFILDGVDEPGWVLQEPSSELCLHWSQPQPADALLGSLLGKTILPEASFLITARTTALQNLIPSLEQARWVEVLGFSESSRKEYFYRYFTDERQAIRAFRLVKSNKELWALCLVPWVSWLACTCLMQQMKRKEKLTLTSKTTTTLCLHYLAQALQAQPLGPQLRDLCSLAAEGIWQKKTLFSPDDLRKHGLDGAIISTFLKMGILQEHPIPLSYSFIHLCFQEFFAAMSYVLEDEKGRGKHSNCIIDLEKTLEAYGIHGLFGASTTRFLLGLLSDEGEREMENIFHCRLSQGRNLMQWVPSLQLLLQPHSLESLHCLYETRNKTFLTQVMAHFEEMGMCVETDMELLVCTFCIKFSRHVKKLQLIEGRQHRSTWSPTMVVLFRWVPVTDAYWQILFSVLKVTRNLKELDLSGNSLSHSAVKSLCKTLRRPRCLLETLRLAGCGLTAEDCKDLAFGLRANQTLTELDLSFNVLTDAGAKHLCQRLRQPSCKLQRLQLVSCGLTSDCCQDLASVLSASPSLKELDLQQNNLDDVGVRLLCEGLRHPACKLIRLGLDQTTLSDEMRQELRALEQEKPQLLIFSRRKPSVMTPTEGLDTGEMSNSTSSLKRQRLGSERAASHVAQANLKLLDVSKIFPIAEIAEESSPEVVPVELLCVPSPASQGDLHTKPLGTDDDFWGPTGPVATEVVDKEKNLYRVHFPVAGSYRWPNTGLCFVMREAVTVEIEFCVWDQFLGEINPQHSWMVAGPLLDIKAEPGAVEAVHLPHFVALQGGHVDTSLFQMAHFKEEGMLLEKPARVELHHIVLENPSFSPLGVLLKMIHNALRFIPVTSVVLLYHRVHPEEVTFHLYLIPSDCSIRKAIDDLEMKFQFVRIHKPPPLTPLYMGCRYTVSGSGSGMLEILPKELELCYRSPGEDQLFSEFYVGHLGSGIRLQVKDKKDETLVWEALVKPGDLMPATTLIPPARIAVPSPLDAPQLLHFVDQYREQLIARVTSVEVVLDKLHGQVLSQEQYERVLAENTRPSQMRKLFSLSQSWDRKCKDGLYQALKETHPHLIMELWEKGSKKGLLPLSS
The experiment in a line: NALP1 inhibitors in yeast, dose response, luminescent (AID 488860). Type of experiment: functional.

For experiment [12], the target named is T4, Replicative DNA helicase DnaB (Mycobacterium tuberculosis, UniProt P9WMR3).
T4 sequence (P9WMR3 whole entry): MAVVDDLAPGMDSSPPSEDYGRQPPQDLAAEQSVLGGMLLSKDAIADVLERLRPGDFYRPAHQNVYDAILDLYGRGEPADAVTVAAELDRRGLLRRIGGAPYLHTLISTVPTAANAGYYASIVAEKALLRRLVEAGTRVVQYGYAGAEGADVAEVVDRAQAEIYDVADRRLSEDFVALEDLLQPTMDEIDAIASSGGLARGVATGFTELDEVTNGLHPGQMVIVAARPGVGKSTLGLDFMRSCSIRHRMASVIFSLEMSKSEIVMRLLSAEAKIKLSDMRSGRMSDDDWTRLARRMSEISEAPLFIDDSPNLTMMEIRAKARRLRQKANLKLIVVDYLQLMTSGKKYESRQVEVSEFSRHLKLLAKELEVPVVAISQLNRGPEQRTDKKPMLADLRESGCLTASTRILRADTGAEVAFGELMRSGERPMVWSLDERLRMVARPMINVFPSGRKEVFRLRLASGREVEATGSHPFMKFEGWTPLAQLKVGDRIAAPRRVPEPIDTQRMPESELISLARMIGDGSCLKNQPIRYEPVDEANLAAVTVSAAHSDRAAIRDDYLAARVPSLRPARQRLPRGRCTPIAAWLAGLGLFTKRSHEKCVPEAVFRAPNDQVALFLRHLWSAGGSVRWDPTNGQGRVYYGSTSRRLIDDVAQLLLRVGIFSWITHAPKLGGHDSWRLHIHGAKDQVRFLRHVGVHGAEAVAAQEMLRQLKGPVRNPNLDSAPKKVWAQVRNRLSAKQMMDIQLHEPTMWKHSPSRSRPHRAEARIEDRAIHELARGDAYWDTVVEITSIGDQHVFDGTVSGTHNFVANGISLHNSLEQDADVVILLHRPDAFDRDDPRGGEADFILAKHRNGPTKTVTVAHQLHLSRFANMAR
The experiment in a line: DnaB intein splicing inhibitors, dose response, biochemical, cell-free fluorescence (AID 449749). Type of experiment: functional.

DNA dC->dU-editing enzyme APOBEC-3A, sequence (P31941 whole entry): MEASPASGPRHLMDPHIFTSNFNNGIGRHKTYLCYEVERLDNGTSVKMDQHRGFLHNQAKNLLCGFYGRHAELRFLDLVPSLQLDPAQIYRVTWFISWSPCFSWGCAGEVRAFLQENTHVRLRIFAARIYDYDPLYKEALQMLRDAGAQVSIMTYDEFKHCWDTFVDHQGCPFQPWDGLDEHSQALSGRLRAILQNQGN
Cell division cycle 7-related protein kinase, sequence (O00311 whole entry): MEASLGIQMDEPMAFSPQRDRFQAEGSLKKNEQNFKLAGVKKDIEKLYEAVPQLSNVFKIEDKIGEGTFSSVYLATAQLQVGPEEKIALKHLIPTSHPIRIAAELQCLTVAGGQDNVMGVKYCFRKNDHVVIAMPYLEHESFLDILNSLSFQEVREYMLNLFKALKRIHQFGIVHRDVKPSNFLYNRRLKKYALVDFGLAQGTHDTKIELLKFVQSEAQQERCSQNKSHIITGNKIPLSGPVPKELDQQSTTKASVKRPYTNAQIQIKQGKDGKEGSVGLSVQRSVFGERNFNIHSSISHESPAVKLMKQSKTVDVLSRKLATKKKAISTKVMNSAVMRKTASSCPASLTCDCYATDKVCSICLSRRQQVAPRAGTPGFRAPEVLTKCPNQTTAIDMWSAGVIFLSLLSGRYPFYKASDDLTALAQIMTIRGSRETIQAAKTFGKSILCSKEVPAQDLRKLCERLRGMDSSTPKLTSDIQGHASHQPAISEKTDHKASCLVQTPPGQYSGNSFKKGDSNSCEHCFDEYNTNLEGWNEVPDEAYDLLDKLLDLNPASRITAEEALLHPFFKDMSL

As a reminder, the Ki is a measure of affinity in units of concentration, obtained from inhibition or displacement. `O=c1nc(-c2ccccc2)cc(-c2ccncc2)[nH]1`: the Ki was 0.158 µM (active) in experiment [1] and > 100 µM (inactive) in experiment [2].

Regarding `Nc1nc2sc3c(c2c2nnc(SCc4ccc(Cl)cc4)n12)CCCC3`, the IC50 in [3] and in experiment [4] was > 99 µM (inactive) in each case.

The term EC50 denotes the concentration at which the effect is half-maximal. `O=C(c1noc2ccccc12)N(C1CCCCC1)C1CCCCC1`: the EC50 in experiment [5] and in experiment [6] was > 50 µM (inactive) throughout.

A word on the AC50: it is the concentration at which the activity in the assay is half-maximal. Take `Cc1ccc2nc(N3CCN(Cc4nnnn4C4CCCC4)CC3)c(C#N)cc2c1`: the AC50 in experiment [7] is 4.05 µM (active).

As for `Cn1c(=O)c([N+](=O)[O-])c(-n2cnc3ccccc32)c2ccccc21`, the AC50 in experiment [8] is 69.6 µM (active); in experiment [12] it was 8.12 µM (active). The IC50 was 72.3 µM (active) in experiment [9] and > 100 µM (inactive) in experiment [11]. In addition, the EC50 in experiment [10] was 7.26 µM (active).
